Legend:
[1] = tested on: ethanol-induced gastric mucosal injury; assay: Ethanol-induced gastric mucosal injury model in rats; type: in vivo, SD rats
Description: Male SD rats (7 weeks old, Charles River) were purchased through Oriental BioService Inc., acclimated for 1 week and used for the study. The rats were grouped based on the body weight, placed in a clean cage set with a wire mesh floor one day before the study, fasted for 19 hr (without water for last 3 hr), and orally administered with ethanol (special grade, Nacalai Tesque, Lot No. V8A5862, 1.5 mL) in all groups to induce gastric mucosal injury. Compound F was orally administered at doses of 0.01, 0.1 and 1 mg/kg 30 min before induction of gastric mucosal injury at a volume of 5 mL/kg. To the control group was orally administered a solvent (1 vol% ethanol solution) at 5 mL/kg in the same manner. Eight animals were used for each group.
The rats were bled to death from the abdominal aorta and caudal vena cava under ether anesthesia after 1 hr from the ethanol administration, and the stomach was isolated. The isolated stomach was immediately filled with 2 vol% neutral formalin solution (6 mL) and fixed for 15 min. The stomach was incised along the midline of the greater curvature from the cardiac part to the pyloric part, and extended on a vinyl chloride board. The length and width of each ulcer were measured under a stereomicroscope, the area was calculated, and the sum thereof was taken as the total ulcer area.

intraocular pressure = assay: Effect on intraocular pressure in rabbits; type: in vivo, Japanese white rabbits; settings: 0.01 w/v% solution, 50 µL/eye
Description: Japanese white rabbits (male, 10 weeks old, BIOTEC Co., Ltd.) were purchased, acclimated for 1 week and used for the study. Compound F solution (0.01 w/v%) was instilled once into the cornea of both eyes at a volume of 50 µL/eye with a micropipette. The intraocular pressure of the right eye was measured and the local irritative effect on the eye was evaluated using the left eye. After surface anesthesia with oxybupranol (Benoxil 0.4% instillation solution), the intraocular pressure was measured before ocular instillation ) and 1, 2, 3, 4, 6 and 8 hr after the instillation using a pneumatonometer (Alcon Ltd.). In addition, the local irritative effect on the eye was evaluated by scoring conjunctival congestion, conjunctival edema, cornea opacity, iris congestion, excretion and eye closure performance. For the evaluation, phosphate buffer was used for the solvent control group, and isopropyl unoprostone (Rescula eye drops, Santen Pharmaceutical Co., Ltd.) was used for comparison. Six animals were used for each group and the results were expressed as average.

[2] = Plasma pharmacokinetics after intravenous administration to rats; type: in vivo; settings: male, rat
Description: To verify the in vivo metabolic stability of the compound of the present invention, plasma pharmacokinetics was evaluated after intravenous administration to rats. Male rats (6 weeks old, body weight 160 - 180 g) were acclimated for 1 week, and the animals diagnosed healthy were used. A mixture of compound F and compound J of the present invention described in Table 1 (F:J = 52:41), and a mixture of carboxylate forms of compound F and compound J (F:J = 54:34), and compound F (synthesized in Example 9) were dissolved in a small amount of ethanol and physiological saline was added to prepare test compound solutions. The test compound solutions were instantaneously administered intravenously at 1 mL/kg from the femoral vein of non-fasting rats under light ether anesthesia. Venous blood was drawn from the tail vein 5, 15, 30, 45, 60, 90 and 120 min after administration. The blood was mixed with heparin and centrifuged (3000 rpm, 4°C, 15 min) to obtain plasma. The plasma compound concentration was determined by the internal standard method using LC-MS/MS. The determination range by this method was from 0.1 to 100 ng/mL. The compound concentrations obtained from each rat were analyzed in a model-independent way using a pharmacokinetics analysis software WinNonlin (ver.3.3), and average ± standard deviation of 3 animals for each group was obtained.

[3] = tested on: dextran sodium sulfate-induced colitis; assay: Prophylactic effect on dextran sodium sulfate-induced colitis model in mice (BALB/c); type: in vivo; settings: 2.2 w/v% DSS
Description: Female BALB/c mice (6 weeks old, Japan SLC) were purchased, acclimated for 1 week and used for the study. Except the normal group, the mice were allowed to freely drink a dextran sodium sulfate (to be abbreviated as DSS, MP Biochemicals, M.W. 36,000 - 50,000, Lot No. 3439J) solution prepared to 2.2 w/v% for 9 days to induce colitis. Compound F was orally administered at doses of 0.1, 0.3 and 1 mg/kg, once a day, daily, from the start day of DSS drinking (day 0) to one day before autopsy (day 9). To the control group was orally administered a solvent (1 vol% ethanol solution) at 10 mL/kg in the same manner.
Thus, to determine the level of diarrhea, the stool was graded into 6 levels; normal (score 0), spherical stool being not less than 50% (score 1), banana-shaped stool being less than 50% (score 2), banana-shaped stool being not less than 50% (score 3), muddy stool (score 4), watery stool (score […]) (stool consistency score). The fecal occult blood (including proctorrhagia) was graded using fecal occult blood slide 5 Shionogi II (Shionogi & Co., Ltd.) into 6 levels; negative (no change of the slide color from yellow, score 0), weakly positive (slightly blue green, score 1), positive (blue green, score 2), moderately positive (clear blue green, score 3), strongly positive (instantaneous color change to dark blue with color developer, score 4), and proctorrhagia (score 5). The sum of the stool consistency score and occult blood score was defined as the stool score. Eight to 10 animals were used for each group, and the results were expressed as average ± standard deviation. On the day of autopsy, after laparotomy under ether anesthesia and blood collection, the mice were exsanguinated to death. Then the large intestines were dissected from just below the cecum to the anus and the length thereof was measured.

[4] = tested on: concanavalin A-induced hepatitis; assay: Prophylactic effect on concanavalin A-induced hepatitis model in mice; type: in vivo, BALB/c mice; settings: oral 1 hr before Con A, compound F 1 mg/10 mL/kg, prednisolone 5 mg/10 mL/kg, 20 hr after Con A
Description: BALB/c mice (female, 7 weeks old, Japan SLC) were purchased, acclimated for 1 week and used for the study. Except the no-induction group, Con A (type IV, Sigma-Aldrich) dissolved in saline was administered from the tail vein of the mice at a dose of 12.5 mg/10 mL/kg to induce hepatitis. Twenty hr later, the mice were subjected to laparotomy under ether anesthesia. A 0.5 mL of blood sample was collected from the caudal vena cava and heparinized plasma was obtained to measure plasma ALT and AST activities. Test substances were compound F (1 mg/10 mL solution), prednisolone (Nacalai Tesque, 5 mg/10 mL suspension (with 0.5 w/v% methylcellulose)) and water for injection (administered to the control group), which were orally administered at a volume of 10 mL/kg 1 hr before Con A injection. Seven to 9 animals were used for each group. After logarithmic transformation of the data, one-way analysis of variance was performed for statistical evaluation.

Cc1cccc([C@@H](C)[C@H](O)/C=C/[C@@H]2[C@@H]3[C@H](C[C@H]2O)O/C(=C\CCCc2nnn[nH]2)C3(F)F)c1 [Compound F, 4-[(Z)-(1S,5R,6R,7R)-6-[(1E,3R,4R)-3-hydroxy-4-(m-tolyl)-1-pentenyl]-7-hydroxy-2-oxa-4,4-difluoro-bicyclo[3.3.0]octan-3-ylidene]-1-(tetrazol-5-yl)butane]
effect on total ulcer area (stomach) ([1]; oral 1 mg/kg 30 min before ethanol): almost completely reduced the area | effect on total ulcer area (stomach) ([1]; oral 0.01, 0.1 and 1 mg/kg 30 min before ethanol): significantly reduced the total ulcer area in a dose-dependent manner from 0.01 mg/kg | decrease in intraocular pressure (intraocular pressure; 1 hr after the instillation): 6.9 mmHg | decrease in intraocular pressure (intraocular pressure; 2 hr after the instillation): 9.3 mmHg | decrease in intraocular pressure (intraocular pressure; 6 hr after the instillation): 6.6 mmHg | half-life ([2]; iv, 50 ug/kg): 1.92 ± 0.517 h | half-life ([2]; iv, 300 ug/kg): 2.63 ± 0.25 h | half-life ([2]; rats, intravenous, summary of Table 3): 1 to 2 h | suppression of the increase in the stool score ([3]; oral 0.1 mg/kg once a day): suppressive tendency | suppression of the increase in the stool score ([3]; oral 0.3 mg/kg once a day): significant | suppression of the increase in the stool score ([3]; oral 1 mg/kg once a day): significant | effect on shortening of the large intestine ([3]; oral 0.1, 0.3 and 1 mg/kg once a day): dose-dependent suppressive effect on shortening of the large intestine | effect on increase of plasma ALT activity [4]: significantly and strongly suppressed the increase | effect on increase of plasma AST activity [4]: significantly and strongly suppressed the increase

From patent EP2545917B1, “NOVEL EP4 AGONIST” (Kaken Pharmaceutical Co., Ltd., priority 2010, dated 2011)
